Measurements: patent US4001280A, “Chromone derivatives” (Fujisawa Pharmaceutical Co., Ltd., priority 1972, dated 1977)

System: Hyperimmune antiserum
Test: Anti-allergic test in sensitized rats: percent inhibition of skin dye leakage (blue spot) for hyperimmune antiserum
Type: in vivo, Sprague-Dawley JCL strain rats
Details: p.o.
Procedure: Five male Sprague-Dawley JCL strain rates weighing 290-310g. were used for each dose. The animals were sensitized by intracutaneous injection of 0.1ml. of 5 times diluted reagin-like rat antiserum at 48 hours before egg albumin at their depilated backs and were injected 0.1ml. of 4 times diluted hyperimmune rat antiserum at 4 hours before. One ml. of mixture of egg albumin 5 mg. and Evans blue 5 mg. was injected intravenously. Immediately before 0.1ml. of 0.2% histamine solution was injected intracutaneously.
One hour after the injection of the antigen and dye, animals were sacrificed and the skin of the back was removed. The dye of blue spot was then extracted from the skin. The blue spot areas of the skin were punched out and were cut with clipper into small pieces. The small pieces per one blue spot were blended with 10 ml. of a 4:1 mixture of acetone and 2% solution of RBS-25 (Marumoto industrial Co., Ltd.) and rested for 16 hours. Five and 16 hours after, it was shaked for 30 minutes respectively. After centrifugation at 2000 rpm for 15 minutes, the optical density of the supernatant was determined at 620 mμ.
[…] The mean amount of dye of the test animals was compared with that of the control animals. The percent inhibition for each dose was calculated.

SMILES: CN1CCN(C(=O)c2cc(=O)c3c(OCCOc4ccccc4)cccc3o2)CC1
- inhibition % for Hyperimmune antiserum (pretreatment 30 min., dose 125 mg./kg.): 48.2%
- inhibition % for Hyperimmune antiserum (pretreatment 30 min., dose 250 mg./kg.): 66.7%
- inhibition % for Hyperimmune antiserum (pretreatment 60 min., dose 250 mg./kg.): 45.8%
- inhibition % for Hyperimmune antiserum (pretreatment 60 min., dose 500 mg./kg.): 46.5%
- inhibition % for Hyperimmune antiserum (pretreatment 120 min., dose 125 mg./kg.): 37.6%
- inhibition % for Hyperimmune antiserum (pretreatment 120 min., dose 250 mg./kg.): 40.6%
- inhibition % for Hyperimmune antiserum (pretreatment 120 min., dose 500 mg./kg.): 67.7%
